In PubChem BioAssay (NCI):
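Test compounds were applied to cells in 96-well plates for 48 hours at 5 doses. GI50 marks 50% less growth. TGI: total growth inhibition.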

Tests used:
Test in all cases: NCI anticancer screen, dose series, 48 h
NCI-H522 lung = system: NCI-H522 lung
786-0 renal = system: 786-0 renal
SK-MEL-2 melanoma = system: SK-MEL-2 melanoma
RXF 393 renal = system: RXF 393 renal
NCI-H23 lung = system: NCI-H23 lung
M14 melanoma = system: M14 melanoma
CCRF-CEM leukemia = system: CCRF-CEM leukemia
HCC-2998 colon = system: HCC-2998 colon
MDA-MB-231 breast = system: MDA-MB-231 breast
TK-10 renal = system: TK-10 renal
OVCAR-4 ovarian = system: OVCAR-4 ovarian
NCI-H460 lung = system: NCI-H460 lung
BT-549 breast = system: BT-549 breast
SK-MEL-5 melanoma = system: SK-MEL-5 melanoma
K-562 leukemia = system: K-562 leukemia
SW-620 colon = system: SW-620 colon
EKVX NSCLC = system: EKVX NSCLC
HS 578T breast = system: HS 578T breast
CAKI-1 renal = system: CAKI-1 renal
OVCAR-8 ovarian = system: OVCAR-8 ovarian
UO-31 renal = system: UO-31 renal
HCT-116 colon = system: HCT-116 colon
SN12C renal = system: SN12C renal
SNB-19 CNS = system: SNB-19 CNS
HCT-15 colon = system: HCT-15 colon
MALME-3M melanoma = system: MALME-3M melanoma
IGROV1 ovarian = system: IGROV1 ovarian
DU-145 prostate = system: DU-145 prostate
KM12 colon = system: KM12 colon
PC-3 prostate = system: PC-3 prostate
MCF7 breast = system: MCF7 breast
NCI-H226 lung = system: NCI-H226 lung
ACHN renal = system: ACHN renal
HOP-92 NSCLC = system: HOP-92 NSCLC
LOX IMVI melanoma = system: LOX IMVI melanoma
SNB-75 CNS = system: SNB-75 CNS
RPMI-8226 leukemia = system: RPMI-8226 leukemia
HT29 colon = system: HT29 colon
UACC-62 melanoma = system: UACC-62 melanoma
SR leukemia = system: SR leukemia
OVCAR-5 ovarian = system: OVCAR-5 ovarian
A498 renal = system: A498 renal
SF-539 CNS = system: SF-539 CNS
U251 CNS = system: U251 CNS
A549 NSCLC = system: A549 NSCLC
COLO 205 colon = system: COLO 205 colon
SK-OV-3 ovarian = system: SK-OV-3 ovarian
MOLT-4 leukemia = system: MOLT-4 leukemia
HOP-62 NSCLC = system: HOP-62 NSCLC
MDA-MB-435 = system: MDA-MB-435
HL-60(TB) leukemia = system: HL-60(TB) leukemia
T-47D breast = system: T-47D breast
NCI/ADR-RES ovarian = system: NCI/ADR-RES ovarian
SK-MEL-28 melanoma = system: SK-MEL-28 melanoma
SF-295 CNS = system: SF-295 CNS
UACC-257 melanoma = system: UACC-257 melanoma
SF-268 CNS = system: SF-268 CNS

In the case of `COc1cccc(-c2cc(-c3cccc(NS(C)(=O)=O)c3)nc(N)c2C#N)c1O`, the GI50 (NCI-H522 lung) is reported as 16.3 nM, the TGI (NCI-H522 lung) is reported as 75 nM and the GI50 (786-0 renal) is reported as 375 nM. The TGI (786-0 renal) was > 100000 nM, the GI50 (SK-MEL-2 melanoma) was 132 nM and the TGI (SK-MEL-2 melanoma) was > 100000 nM. The GI50 (RXF 393 renal) was 104 nM, the TGI (RXF 393 renal) was 1390 nM and the GI50 (NCI-H23 lung) was 341 nM. The TGI (NCI-H23 lung) was > 100000 nM, the GI50 (M14 melanoma) was 83.7 nM and the TGI (M14 melanoma) was > 100000 nM. For the same compound, the GI50 (CCRF-CEM leukemia) was 153 nM, the TGI (CCRF-CEM leukemia) was > 100000 nM and the GI50 (HCC-2998 colon) was 328 nM. The TGI (HCC-2998 colon) was > 27100 nM, the GI50 (MDA-MB-231 breast) was 815 nM and the TGI (MDA-MB-231 breast) was > 100000 nM. The GI50 (TK-10 renal) was 500 nM, the TGI (TK-10 renal) was > 100000 nM and the GI50 (OVCAR-4 ovarian) was 610 nM. For the same compound, the TGI (OVCAR-4 ovarian) was > 100000 nM, the GI50 (NCI-H460 lung) was 316 nM and the TGI (NCI-H460 lung) was > 39500 nM. For the same compound, the GI50 (BT-549 breast) was 716 nM, the TGI (BT-549 breast) was > 47400 nM and the GI50 (SK-MEL-5 melanoma) was 74.7 nM. The TGI (SK-MEL-5 melanoma) was 3930 nM, the GI50 (K-562 leukemia) was 50.8 nM and the TGI (K-562 leukemia) was > 100000 nM. The GI50 (SW-620 colon) was 90.4 nM, the TGI (SW-620 colon) was > 100000 nM and the GI50 (EKVX NSCLC) was 561 nM. For the same compound, the TGI (EKVX NSCLC) was > 100000 nM, the GI50 (HS 578T breast) was 90.1 nM and the TGI (HS 578T breast) was 4420 nM. It also gave a GI50 (CAKI-1 renal) of 141 nM, a TGI (CAKI-1 renal) of 88900 nM and a GI50 (OVCAR-8 ovarian) of 351 nM. For the same compound, the TGI (OVCAR-8 ovarian) was > 100000 nM, the GI50 (UO-31 renal) was 208 nM and the TGI (UO-31 renal) was > 52700 nM. The GI50 (HCT-116 colon) was 78.3 nM, the TGI (HCT-116 colon) was > 100000 nM and the GI50 (SN12C renal) was 505 nM. For the same compound, the TGI (SN12C renal) was > 100000 nM, the GI50 (SNB-19 CNS) was 486 nM and the TGI (SNB-19 CNS) was > 100000 nM. For the same compound, the GI50 (HCT-15 colon) was 82.4 nM, the TGI (HCT-15 colon) was > 100000 nM and the GI50 (MALME-3M melanoma) was 46.5 nM. For the same compound, the TGI (MALME-3M melanoma) was 93400 nM, the GI50 (IGROV1 ovarian) was 57.7 nM and the TGI (IGROV1 ovarian) was > 86300 nM. For the same compound, the GI50 (DU-145 prostate) was 182 nM, the TGI (DU-145 prostate) was > 100000 nM and the GI50 (KM12 colon) was 107 nM. For the same compound, the TGI (KM12 colon) was > 100000 nM, the GI50 (PC-3 prostate) was 111 nM and the TGI (PC-3 prostate) was > 100000 nM. The GI50 (MCF7 breast) was 279 nM, the TGI (MCF7 breast) was > 100000 nM and the GI50 (NCI-H226 lung) was 372 nM. The TGI (NCI-H226 lung) was > 100000 nM, the GI50 (ACHN renal) was 846 nM and the TGI (ACHN renal) was > 100000 nM. The GI50 (HOP-92 NSCLC) was 3190 nM, the TGI (HOP-92 NSCLC) was > 31500 nM and the GI50 (LOX IMVI melanoma) was 136 nM. The TGI (LOX IMVI melanoma) was > 100000 nM, the GI50 (SNB-75 CNS) was 79.7 nM and the TGI (SNB-75 CNS) was 5150 nM. For the same compound, the GI50 (RPMI-8226 leukemia) was 268 nM, the TGI (RPMI-8226 leukemia) was 11800 nM and the GI50 (HT29 colon) was 92.4 nM. For the same compound, the GI50 (UACC-62 melanoma) was 64 nM, the TGI (UACC-62 melanoma) was > 100000 nM and the GI50 (SR leukemia) was 56.2 nM. For the same compound, the TGI (SR leukemia) was > 100000 nM, the GI50 (OVCAR-5 ovarian) was 1080 nM and the TGI (OVCAR-5 ovarian) was > 100000 nM. It also gave a GI50 (A498 renal) of 99.9 nM, a TGI (A498 renal) of 35000 nM and a GI50 (SF-539 CNS) of 154 nM. For the same compound, the TGI (SF-539 CNS) was > 100000 nM, the GI50 (U251 CNS) was 127 nM and the TGI (U251 CNS) was > 100000 nM. The GI50 (A549 NSCLC) was 293 nM, the TGI (A549 NSCLC) was > 100000 nM and the GI50 (COLO 205 colon) was 128 nM. For the same compound, the TGI (COLO 205 colon) was 1910 nM, the GI50 (SK-OV-3 ovarian) was 149 nM and the TGI (SK-OV-3 ovarian) was > 100000 nM. The GI50 (MOLT-4 leukemia) was 349 nM, the TGI (MOLT-4 leukemia) was > 100000 nM and the GI50 (HOP-62 NSCLC) was 135 nM. The TGI (HOP-62 NSCLC) was > 100000 nM, the GI50 (MDA-MB-435) was 27.5 nM and the TGI (MDA-MB-435) was 151 nM. For the same compound, the GI50 (HL-60(TB) leukemia) was 86.1 nM, the TGI (HL-60(TB) leukemia) was 2770 nM and the GI50 (T-47D breast) was 317 nM. The TGI (T-47D breast) was 58600 nM, the GI50 (NCI/ADR-RES ovarian) was 154 nM and the TGI (NCI/ADR-RES ovarian) was 2340 nM. The GI50 (SK-MEL-28 melanoma) was 571 nM, the TGI (SK-MEL-28 melanoma) was > 100000 nM and the GI50 (SF-295 CNS) was 43.1 nM. The TGI (SF-295 CNS) was 752 nM, the GI50 (UACC-257 melanoma) was 471 nM and the TGI (UACC-257 melanoma) was > 100000 nM. The GI50 (SF-268 CNS) was 587 nM and the TGI (SF-268 CNS) was > 100000 nM.
